Results: patent US20250242060A1, “CHEMOGENETIC REGULATION OF PEPTIDE FUNCTION” (priority 2022, published 2025)
Entries after “also recorded” stand apart in the source; their conditions may differ.

Tests used:
[1] = target: T1, LID (FKBP with original binding sequence) fused to TEVcs (Homo sapiens, UniProt P62942, F37V); experiment: Yeast surface protease cleavage assay, TEVcs caged by LID; format: biochemical; details: LID degradation sequence replaced with TEVcs
T1 construct: TEVcs (ENLYFQ/G) (C); HA (C); expressed in transfected cells; host or cells: Saccharomyces cerevisiae EBY100, surface display from pCTCON2
T1 sequence (P62942 with tags, fused parts or gaps F37V limits assumed): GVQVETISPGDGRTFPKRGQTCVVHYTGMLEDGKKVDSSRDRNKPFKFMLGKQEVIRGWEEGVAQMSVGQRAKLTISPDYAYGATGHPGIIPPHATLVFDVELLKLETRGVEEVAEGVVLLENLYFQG
Description: (§1) The ability of LID to cage two short peptides that have been previously shown to be controllable by the AsLOV2 domain was tested. […] The degradation sequence (RRRGN) in LID was replaced with TEVcs or SsrA, and the remainder of the binding sequence and linker was retained (FIG. 1d).
Yeast that expressed TEV protease cleavage site (CapN constructs) was treated with TEVp prior to labeling with antibody-fluorophore conjugate. Samples were incubated with 200 μL PBSB containing TEVp (expressed and purified as described above, under “Expression and purification of TEV protease”) and 5 μM shield-1 at 4° C. for 3 h with rotation. For negative control, either TEVp or shield-1, or both, was not present in PBSB. […]
(§2) After TEVp or APEX2 labeling, samples were labeled with antibody-fluorophore and/or streptavidin-fluorophore conjugates. […] All samples were resuspended in PBSB and analyzed or sorted by FACS (fluorescence-activated cell sorting, following procedures described under “FACS analysis and library selection”) within 24 h of labeling.
(§3) After labeling according to the procedures described above (under “Yeast labeling”), non-library yeast samples were analyzed with an LSRFortessa cell analyzer flow cytometer (BD Biosciences) equipped with 640 nm laser and 670/14 emission filter (for Alexa Fluor647) as well as 561 nm laser and 586/15 emission filter (for Alexa Fluor568 and PE). […]

mu-opioid receptor (MOR) [2] = experiment: GloSensor cAMP assay, single chain met-enkephalin-CapC-MOR; details: HEK 293T, forskolin stimulated
Description: A cyclic adenosine monophosphate (cAMP)-dependent luciferase (GloSensor) was used to monitor the activation of mu-opioid receptor. By expressing the real-time sensor GloSensor in cells, greater luminescence is observed when the cAMP concentration is high, and lower luminescence when the cAMP concentration is low. The GloSensor assay complements the split NanoLuc assay because it measures a downstream event rather than just binding between a G protein and the receptor i.e., membrane tethered opioid peptides (M-PROBE) activation not only causes G protein recruitment, but also downstream signaling events.
To test whether the M-PROBE induces downstream signaling as a free opioid, and that function of met-enkephalin is well-preserved in the membrane-tethered geometry, the same single chain met-enkephalin-CapC-MOR was expressed on the membrane of HEK 293T cells, and co-transfected cells with the cAMP-dependent luciferase. After overnight protein expression, HEK 293T cells were stimulated with forskolin to enhance the cAMP concentration within the cells. MOR is an inhibitory G-protein coupled receptor (GPCR), and its activation leads to decreased cAMP levels. A high cAMP concentration magnifies the effect of MOR activation.

mu-opioid receptor (MOR) [3] = experiment: Split NanoLuc assay, 1-chain CapC-caged met-enkephalin fused to opioid receptor, Nb44 recruitment; format: cell-based; details: HEK293T cells, 1-chain design
Text: To test shield-1 chemical-dependent regulation of an opioid peptide, CapC-caged met-enkephalin was fused directly onto the N-terminus of the opioid receptor as shown in the right panel of FIG. 22. In this design, the M-PROBE cell membrane tethered opioid peptides (M-PROBE) and the opioid receptors were expressed in a fixed ratio in close proximity.

CapN = target: T2, CapN (Homo sapiens, UniProt P62942, F37V); experiment: Shield-1 reversibility characterization with CapN-caged SsrA on yeast surface; format: binding; details: 10 min shield-1, washed, incubated up to 12 h without shield-1
T2 construct: expressed in transfected cells; host or cells: Saccharomyces cerevisiae EBY100, surface display from pCTCON2
T2 sequence (P62942 with tags, fused parts or gaps F37V): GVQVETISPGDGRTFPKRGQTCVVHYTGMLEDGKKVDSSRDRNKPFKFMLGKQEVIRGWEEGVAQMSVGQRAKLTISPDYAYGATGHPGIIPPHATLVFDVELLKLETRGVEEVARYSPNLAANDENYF
Description: FIG. 4. […] Yeast cells were incubated with shield-1 for 10 min, followed by washing to remove excess shield-1. […] Values are median biotin intensity of FLAG-positive cells (Q2+Q4). […] This experiment was performed once.
Yeast that expressed SsrA (CapC constructs) was subject to APEX2 labeling^40 prior to labeling with antibody-fluorophore and streptavidin-fluorophore conjugates. Samples were incubated with 100 μL of PBSB containing SspB-APEX2 (expressed and purified as described above, under “Expression and purification of SspB-APEX2”) and 5 μM shield-1 at room temperature for 10 min with rotation. For negative controls, either SspB-APEX2 or shield-1, or both, was not present in PBSB. […]
as §2, §3

[4] = target: CAPs-caged SsrA (mCherry-CapN-SsrA-CapC-CAAX) with SspB-EGFP in HEK 293T cells (Homo sapiens, UniProt P62942, F37V); experiment: Shield-1 induced protein translocation to the plasma membrane; details: 1 μM shield-1
CAPs-caged SsrA (mCherry-CapN-SsrA-CapC-CAAX) with SspB-EGFP in HEK 293T cells, sequence (P62942 with tags, fused parts or gaps F37V): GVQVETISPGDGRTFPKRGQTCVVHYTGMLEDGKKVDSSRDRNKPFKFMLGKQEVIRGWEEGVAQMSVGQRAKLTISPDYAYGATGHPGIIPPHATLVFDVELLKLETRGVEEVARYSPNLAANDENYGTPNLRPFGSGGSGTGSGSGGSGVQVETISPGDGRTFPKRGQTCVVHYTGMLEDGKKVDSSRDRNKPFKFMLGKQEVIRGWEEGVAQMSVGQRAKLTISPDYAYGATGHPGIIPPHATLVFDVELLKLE
Description: To test use of CAPs for protein translocation, a shield-1 induced membrane localization system was designed (FIG. 9). In this design, CAPs-caged SsrA peptide is localized on the plasma membrane of HEK 293T cells by fusing to a transmembrane domain. The interacting partner of SsrA, SspB protein, is fused to the protein of interest (POI). As an example, evolved green fluorescent protein (EGFP) was used as the POI. Without shield-1, no binding between SsrA and SspB occurs, and EGFP is found throughout the cell.
Cells were incubated for 24 h at 37° C. before further processing. HEK293T cells were imaged with 60× oil-immersion objective on the Nikon inverted confocal microscope. Shield-1 dissolved in complete growth media was added gently to the top of the media to 1 μM during imaging. The intensity profile was acquired with Nikon NIS-Elements analysis module and plotted by GraphPad Prism 7.

[5] = tested on: CAPs-caged SsrA split transcription factor in HEK 293T cells; experiment: Shield-1 dependent gene transcription activation, Gal4 DBD, UAS-mCherry reporter; format: cell-based; set-up: Gene expression (mCherry) at different shield-1 concentrations: dose or concentration left out as unconfirmed; details: for Shield-1-induced increase in mCherry intensity: + vs - shield-1
[6] = tested on: CAPs-caged TEVcs with TEV protease in HEK 293T cells; experiment: Shield-1 induced delocalization from the plasma membrane to the cytosol; format: cell-based; details: 10 μM shield-1, 18 h
Description: CAPs-caged TEVcs were anchored to the plasma membrane, followed by the POI (FIG. 9c). Under no shield-1 conditions, TEVcs are inaccessible to the co-expressed TEV protease, and the POI remains localized on the plasma membrane. With shield-1, TEVcs are uncaged and cleaved by TEV protease, thereby releasing the POI from the cell membrane.
Two extra wells without any infection are also plated for background subtraction. […] The two non-infection wells are treated with shield-1 and without shield-1, respectively. HEK 293T cells were incubated for 18 h at 37° C. before imaging.

[7] = tested on: CAPs-caged NLS (PKIt NES-EGFP-CapN-NLS-CapC) in HEK 293T cells; experiment: Shield-1 controlled nuclear-cytoplasmic protein distribution; format: cell-based; details: 10 μM shield-1, 18 h
Text: The nucleocytoplasmic distribution of many eukaryotic proteins is a common determinant of their functions^30. Previously, NLS has been controlled by light through customized engineering with the AsLOV2 domain^13,14. To test if NLS is controlled by CAPs in a shield-I-dependent manner, a single-chain construct was designed in which a POI is expressed as a fusion protein with CAPs-caged NLS (FIG. 9e). […] Addition of shield-1 opens the CAPs and exposes NLS to endogenous importins, bringing the POI to the nucleus. Due to the strength of the NLS, a weak nuclear export signal, PKIt^13, was added to the construct to reduce the nuclear localization of the protein in the basal state.
HEK 293T cells were incubated for 18 h at 37° C. before imaging. […] Individual cells and the nuclei are determined by mCherry signal. Mean intensity and area are acquired with Nikon NIS-Elements analysis module. Mean intensities were subtracted by background mean intensity, and the resulting number is multiplied with the area to give total intensities. The EGFP distribution ratio was calculated by the total intensity of EGFP in the cytosol to that in the whole cell. P value was determined by unpaired two-tailed t-tests.

FKBP12(F36V) = FKBP12(F36V) (Homo sapiens, UniProt P62942, F37V); details: cited from earlier work
FKBP12(F36V), sequence (P62942 whole entry F37V): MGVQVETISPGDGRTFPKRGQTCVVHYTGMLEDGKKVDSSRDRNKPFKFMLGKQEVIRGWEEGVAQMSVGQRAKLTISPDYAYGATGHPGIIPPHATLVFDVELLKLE

[8] = target: T3, CAPs-caged SsrA split transcription factor (P2A construct u4) in rat cortical neurons UniProt P62942, F37V); experiment: Shield-1 dependent gene transcription in cultured neurons, TetR DBD, TRE-mCherry reporter; format: cell-based; details: AAV, 2 μM shield-1, 24 h
T3 construct: P2A self-cleaving peptide, separating it from the SspB-VP16 part (cleaved yes); host or cells: cultured rat cortical neurons, AAV
Description: To test the CAPs chemical-dependent transcriptional system in neuroscience applications, it was tested in cultured neurons. To enable homogeneous expression of DNA in stringent experiments, we generated single viral constructs that express both the DNA-binding and the transcription-activation domains via the self-cleaving peptide P2A or the internal ribosome entry site (TRES) were constructed (FIG. 12b). […] The P2A construct was then used to introduce the TetR DBD and VP16 transcription-activation domain into cultured rat cortical neurons through adeno-associated viruses (AAV), together with another AAV encoding the TRE-mCherry reporter gene. Shield-1 induced 44-fold increase in mCherry reporter gene expression compared to the no shield-1 condition (FIG. 12e and FIG. 19), showing that this system works robustly in cultured neurons.
Rat cortical neurons (Thermo Fisher Scientific, Cat #A1084001) were plated according to the user protocol. […] The viable cell density was determined by adding 10 μL of the cell suspension to 10 μl 0.4% Trypan blue, followed by cell counting using hemocytometer. […]
For neuronal infection, either concentrated AAVes or supernatant AAVes were added the neurons at DIV5-DIV10 (days in vitro). […] P values were determined by unpaired two-tailed t-tests.

[9] = target: T4, LID (FKBP with original binding sequence) fused to SsrA (Homo sapiens, UniProt P62942, F37V); experiment: Yeast surface binding assay, SsrA caged by LID; details: LID degradation sequence replaced with SsrA
T4 construct: expressed in transfected cells; host or cells: Saccharomyces cerevisiae EBY100, surface display from pCTCON2
T4 sequence (P62942 with tags, fused parts or gaps F37V): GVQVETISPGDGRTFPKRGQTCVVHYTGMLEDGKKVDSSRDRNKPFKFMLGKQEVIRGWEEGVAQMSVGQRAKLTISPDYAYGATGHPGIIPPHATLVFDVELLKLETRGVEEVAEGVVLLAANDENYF
Description: as §1
Yeast that expressed SsrA (CapC constructs) was subject to APEX2 labeling^40 prior to labeling with antibody-fluorophore and streptavidin-fluorophore conjugates. Samples were incubated with 100 μL of PBSB containing SspB-APEX2 (expressed and purified as described above, under “Expression and purification of SspB-APEX2”) and 5 μM shield-1 at room temperature for 10 min with rotation. […]
as §2, §3

CC[C@H](C(=O)N1CCCC[C@H]1C(=O)O[C@H](CCc1ccc(OC)c(OC)c1)c1cccc(OCCN2CCOCC2)c1)c1cc(OC)c(OC)c(OC)c1 [shield-1]
Shield-1 dependence of TEVcs accessibility [1]: not observed | Decrease in luminescence (mu-opioid receptor (MOR) [2]; shield-1 treated): ~50% | Luminescence signal (RLU) (mu-opioid receptor (MOR) [3]): increase the signal | Biotin signal / CapN state after washing away shield-1 (CapN): No decrease in biotin signal; also recorded: CapN remained open | Time to EGFP translocation to the plasma membrane [4]: within seconds | Shield-1-induced increase in mCherry intensity ([5]; CAPs (tandem) caged 8-amino-acid SsrA): ~25 fold | Shield-1 dependent reporter gene expression change ([5]; CAPs caged 7-amino-acid SsrA (AANDENY), construct u3): 156 fold | Shield-1-induced increase in mCherry intensity ([5]; CapN caged 8-amino-acid SsrA): ~4 fold | Gene expression (mCherry) at different shield-1 concentrations ([5]; construct u3): robust gene expression | Shield-1 incubation period sufficient to induce gene expression ([5]; construct u3, 1 μM shield-1, imaged 24 h after addition): 30 min | Gene expression induction ([5]; construct u3, overnight incubation, shield-1 50 nM or above): > 30 fold | Gene expression ([5]; construct u3, overnight incubation, shield-1 below 10 nM): did not induce gene expression | Shield-1 dependent dynamic range ([5]; maximum over caged peptides): up to 156 fold | Level of EGFP (transcription-activation domain expression) ([5]; shield-1 added to EGFP-SspB-VP16 alone): No difference was found; also recorded: did not increase the level of EGFP | Increase in mCherry expression ([5]; single viral IRES construct (u5)): 123 fold | Increase in mCherry expression ([5]; single viral P2A construct (u4)): 83 fold | EGFP localization after shield-1 addition [6]: depletes EGFP from the plasma membrane; also recorded: depleted the EGFP from the plasma membrane and significantly increased its presence in the cytoplasm | EGFP nuclear-cytosolic distribution after shield-1 addition [7]: depleted from the cytosol and preferentially localized in the nucleus | Affinity for FKBP relative to wild-type FKBP (FKBP12(F36V); FKBP12(F36V) vs wild-type FKBP): over 1000 fold | Affinity for FKBP (FKBP12(F36V); FKBP12(F36V)): sub-nanomolar | Increase in mCherry reporter gene expression vs no shield-1 [8]: 44 fold | Shield-1 dependence of SsrA accessibility [9]: not observed

C[C@@H](NC(=O)[C@@H](N)Cc1ccc(O)cc1)C(=O)NCC(=O)N(C)[C@@H](Cc1ccccc1)C(=O)NCCO [DAMGO]
Decrease in luminescence (mu-opioid receptor (MOR) [2]; 10 micromolar): ~80%
